Measurements published in patent US10327446B2, “Naphthyl- or isoquinolinyl-substituted isothiazoline compounds” (BOEHRINGER INGELHEIM ANIMAL HEALTH USA INC., priority 2013, dated 2019).

Legend:
[1] = tested on: Green Peach Aphid (Myzus persicae); assay: Green peach aphid systemic test on artificial diet in microtiter plates; format: in vivo; conditions: 72 h, adult aphids on treated artificial diet, 3 days, read-out: mortality in comparison with untreated controls
Source text: B.2 Green Peach Aphid (Myzus persicae)
For evaluating control of green peach aphid (Myzus persicae) through systemic means the test unit consisted of 96-well-microtiter plates containing liquid artificial diet under an artificial membrane.
The compounds were formulated using a solution containing 75% v/v water and 25% v/v DMSO. Different concentrations of formulated compounds were pipetted into the aphid diet, using a custom built pipetter, at two replications.
After application, 5-8 adult aphids were placed on the artificial membrane inside the microtiter plate wells. The aphids were then allowed to suck on the treated aphid diet and incubated at about 23±1° C. and about 50±5% relative humidity for 3 days. Aphid mortality and fecundity was then visually assessed.

[2] = tested on: Boll Weevil (Anthonomus grandis); assay: Boll weevil microtiter plate diet test; format: in vivo; conditions: 120 h, sprayed onto insect diet with eggs, egg and larval mortality after 5 days, read-out: mortality in comparison with untreated controls
Description: B.6 Boll Weevil (Anthonomus grandis)
For evaluating control of boll weevil (Anthonomus grandis) the test unit consisted of 96-well-microtiter plates containing an insect diet and 5-10 A. grandis eggs.
(§1) The compounds were formulated using a solution containing 75% v/v water and 25% v/v DMSO. Different concentrations of formulated compounds were sprayed onto the insect diet at 5 μl, using a custom built micro atomizer, at two replications.
After application, microtiter plates were incubated at about 25±1° C. and about 75±5% relative humidity for 5 days. Egg and larval mortality was then visually assessed.

[3] = tested on: Diamond Back Moth (Plutella xylostella); assay: Diamond back moth leaf-dip test; format: in vivo; conditions: cabbage leaves dipped, 3rd instar larvae, 72 hours after treatment, read-out: mortality in comparison with untreated controls
Description: B.1 Diamond Back Moth (Plutella xylostella)
The active compound was dissolved at the desired concentration in a mixture of 1:1 (vol:vol) distilled water:aceteone. Surfactant (Kinetic HV) was added at a rate of 0.01% (vol/vol). The test solution was prepared at the day of use.
Leaves of cabbage were dipped in test solution and air-dried. Treated leaves were placed in petri dishes lined with moist filter paper and inoculated with ten 3rd instar larvae. Mortality was recorded 72 hours after treatment. Feeding damages were also recorded using a scale of 0-100%.

[4] = tested on: Mediterranean Fruitfly (Ceratitis capitata); assay: Mediterranean fruitfly microtiter plate diet test; conditions: 120 h, read-out: mortality in comparison with untreated controls
[5] = tested on: Tobacco Budworm (Heliothis virescens); assay: Tobacco budworm microtiter plate diet test; format: in vivo; conditions: 120 h, sprayed onto insect diet with eggs, egg and larval mortality after 5 days, read-out: mortality in comparison with untreated controls
Description: B.5 Tobacco Budworm (Heliothis virescens)
as §1, with “For evaluating control of tobacco budworm (Heliothis virescens) the test unit consisted of 96-well-microtiter plates containing an insect diet and 15-25 H. virescens eggs. The” for “The”, “at 10” for “at 5”
After application, microtiter plates were incubated at about 28±1° C. and about 80±5% relative humidity for 5 days. Egg and larval mortality was then visually assessed.

[6] = tested on: Vetch Aphid (Megoura viciae); assay: Vetch aphid broad bean leaf disk test; format: in vivo; conditions: foliar, 120 h, sprayed onto broad bean leaf disks, adult aphids, 5 days, read-out: mortality in comparison with untreated controls
Description: B.4 Vetch Aphid (Megoura viciae)
For evaluating control of vetch aphid (Megoura viciae) through contact or systemic means the test unit consisted of 24-well-microtiter plates containing broad bean leaf disks.
The compounds were formulated using a solution containing 75% v/v water and 25% v/v DMSO. Different concentrations of formulated compounds were sprayed onto the leaf disks at 2.5 μl, using a custom built micro atomizer, at two replications.
After application, the leaf disks were air-dried and 5-8 adult aphids placed on the leaf disks inside the microtiter plate wells. The aphids were then allowed to suck on the treated leaf disks and incubated at about 23±1° C. and about 50±5% relative humidity for 5 days. Aphid mortality and fecundity was then visually assessed.

[7] = tested on: Orchid Thrips (Dichromothrips Corbetti); assay: Orchid thrips floral-immersion test; format: in vivo; conditions: orchid petals dipped, adult thrips, 72 hours after treatment, read-out: mortality in comparison with untreated controls
Description: B.7 Orchid Thrips (Dichromothrips Corbetti)
Dichromothrips corbetti adults used for bioassay were obtained from a colony maintained continuously under laboratory conditions. For testing purposes, the test compound is diluted in a 1:1 mixture of acetone:water (vol:vol), plus Kinetic HV at a rate of 0.01% v/v.
Thrips potency of each compound was evaluated by using a floral-immersion technique. All petals of individual, intact orchid flowers were dipped into treatment solution and allowed to dry in Petri dishes. Treated petals were placed into individual resealable plastic along with about 20 adult thrips. All test arenas were held under continuous light and a temperature of about 28° C. for duration of the assay. After 3 days, the numbers of live thrips were counted on each petal. The percent mortality was recorded 72 hours after treatment.

O=C(NCC(F)(F)F)N/N=C/c1ccc(C2=NSC(c3cc(Cl)c(Cl)c(Cl)c3)(C(F)(F)F)C2)c2ccccc12 (stereo not drawn) [Compound 1-1, 1-[(E)-[4-[5-(3,4,5-trichlorophenyl)-5-(trifluoromethyl)-4H-isothiazol-3-yl]-1-naphthyl]methyleneamino]-3-(2,2,2-trifluoroethyl)urea]
≥ 75%: mortality at 2500 ppm [1] | mortality at 2500 ppm [2] | mortality at 500 ppm [3] | mortality at 2500 ppm [4] | mortality at 2500 ppm [5]

O=C(NCC1CC(F)(F)C1)c1ccc(C2=NSC(c3cc(Cl)c(Cl)c(Cl)c3)(C(F)(F)F)C2)c2ccccc12 (stereo not drawn) [Compound 2-1, N-[(3,3-difluorocyclobutyl)methyl]-4-[5-(3,4,5-trichlorophenyl)-5-(trifluoromethyl)-4H-isothiazol-3-yl]naphthalene-1-carboxamide]
≥ 75%: mortality at 2500 ppm [1] | mortality at 2500 ppm [2] | mortality at 500 ppm [3] | mortality at 2500 ppm [6] | mortality at 2500 ppm [4] | mortality at 500 ppm [7] | mortality at 2500 ppm [5]
